For test [1], the target named is T1, hDNA2, Bloom syndrome and RPA (Homo sapiens, UniProt P51530).
T1 construct: made in house
T1 sequence (P51530 1-1060): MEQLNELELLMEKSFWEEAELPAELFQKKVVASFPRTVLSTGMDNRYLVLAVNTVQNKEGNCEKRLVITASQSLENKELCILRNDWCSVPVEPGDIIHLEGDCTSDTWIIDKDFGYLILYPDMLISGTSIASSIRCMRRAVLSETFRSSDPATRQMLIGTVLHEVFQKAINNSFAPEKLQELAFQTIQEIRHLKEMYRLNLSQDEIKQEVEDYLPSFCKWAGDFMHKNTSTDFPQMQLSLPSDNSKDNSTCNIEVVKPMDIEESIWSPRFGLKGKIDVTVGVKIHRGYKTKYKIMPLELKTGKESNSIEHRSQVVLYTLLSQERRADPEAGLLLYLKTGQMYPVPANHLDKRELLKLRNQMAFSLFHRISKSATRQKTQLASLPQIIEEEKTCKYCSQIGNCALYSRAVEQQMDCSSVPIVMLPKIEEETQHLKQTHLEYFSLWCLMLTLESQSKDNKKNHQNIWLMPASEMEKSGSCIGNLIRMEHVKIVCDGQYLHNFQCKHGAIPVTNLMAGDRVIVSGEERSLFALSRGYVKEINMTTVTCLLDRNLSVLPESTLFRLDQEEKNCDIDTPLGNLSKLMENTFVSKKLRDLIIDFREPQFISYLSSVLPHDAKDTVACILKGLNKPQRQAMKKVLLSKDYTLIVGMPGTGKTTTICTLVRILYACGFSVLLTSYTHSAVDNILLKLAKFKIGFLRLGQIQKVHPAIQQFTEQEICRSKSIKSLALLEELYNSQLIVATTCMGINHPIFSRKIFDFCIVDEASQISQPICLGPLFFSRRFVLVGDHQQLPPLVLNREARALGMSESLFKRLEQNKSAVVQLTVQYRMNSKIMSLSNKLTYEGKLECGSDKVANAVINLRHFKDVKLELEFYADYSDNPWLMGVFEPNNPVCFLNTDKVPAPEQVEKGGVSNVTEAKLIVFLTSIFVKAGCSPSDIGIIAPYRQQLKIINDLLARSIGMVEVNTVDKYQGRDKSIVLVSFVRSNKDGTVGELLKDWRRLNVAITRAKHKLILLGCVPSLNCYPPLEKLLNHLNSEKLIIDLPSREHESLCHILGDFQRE
In words: Reconstituted 5' DNA end resection assay (2-kb dsDNA degradation). Conditions: hDNA2 5 nM, Bloom syndrome 5 nM, RPA 100 nM. It is filed as biochemical. The procedure:
Figure 3 Validation of the top two inhibitors identified from the high-throughput screen. […] (b, c) Dose-response curves for indicated compounds, cell based (U2OS cell line) (b) and in vitro (c). The IC50 value and the protein concentration used are indicated. Triple labeled substrate (0.1 μM) as in Figure 2a was used. The concentration range of inhibitors was 0.003–666.67 μM. […] The asterisks denote the radiolabel. Plotted are the average data from three independent experiments and the error bars represent 1 s.d.
Nuclease assays were performed in buffer R (20 mM Na-HEPES pH 7.5, 1 mM ATP, 0.1 mM DTT, 100 μg/ml bovine serum albumin, 0.05% Triton X-100, 2 mM MgCl2, 100 mM KCl) and contained 0.5 nM ends (2-kb substrate) or 5 nM ends (the ssDNA oligonucleotide PSOL6929) of DNA. Reactions containing Bloom syndrome also included an ATP regenerating system consisting of 10 mM creatine phosphate and 50 μg/ml creatine kinase. […] Gels were dried onto DEAE paper on top of Whatman filter paper (GE, Issaquah, WA, USA) and then analyzed in a BioRad Personal Molecular Imager FX phosphorimager. Band intensity was quantified using Image Lab software (Bio-Rad, Hercules, CA, USA). The fraction of DNA substrate digested was determined by measuring the amount of substrate remaining and normalizing to the total substrate in the negative control lane containing no protein.

The next test addresses T2, hDNA2 (Homo sapiens, UniProt P51530).
T2 construct: made in house
T2 sequence (P51530 1-1060): T1 sequence (P51530 1-1060)
The test is described as follows: ATPase activity of hDNA2 (TLC). Format: biochemical. Conditions: inhibitor 10 µM, 100 nM hDNA2. The procedure:
Figure S2. […] (a) Analysis of 5’ flap processing by hDNA2 in presence of the compounds at the indicated concentration. DNA2 (2.5 nM) was incubated with the Y DNA substrate (5 nM ends) and the indicated concentration of inhibitor. (b) Plots showing quantitation of the experiments shown in a. Plotted are the average data from three independent experiments with the error bars representing one standard deviation. (c) Analysis of dsDNA unwinding by BLM. BLM (4, 8 and 16 nM), RPA (100 nM) and internally radiolabelled dsDNA (0.5 nM ends) was incubated for 20 min at 37^ºC in presence of either DMSO or NSC-105808 (10 µM) and the products were resolved on a 1% agarose gel. (d) Plots showing quantitation of the experiments shown in c. Plotted are the average data from three independent experiments with the error bars representing one standard deviation. (e) Analysis of the degradation of a 2 kb internally labeled dsDNA (0.5 nM ends) by EXO1 (5 nM) in presence of NSC-105808 (10 µM). (f) Plot showing quantitation of the experiment in e. […] 100 nM hDNA2 was incubated with γ^32P-ATP in the presence of oligonucleotide ssDNA (200 nM) for 20 minutes at 37^ºC in presence of either DMSO or inhibitor (10 µM) and the products were resolved on a TLC plate. (h) Analysis of hDNA2 binding to DNA. […]

Entries after “also recorded” stand apart in the source; their conditions may differ.

Turning to `O=C1C(=O)c2cc([N+](=O)[O-])ccc2-c2ccccc21` [NSC-5195242, 2-nitrophenanthrene-9,10-dione], the “Resection in the reconstituted system” value in test [1] is “inhibited”. Moreover, the “Effect on ATPase activity of DNA2” value at hDNA2 was “do not affect”.

Regarding `NC1=C(Br)C(=O)c2ncccc2C1=O` [NSC-105808, 6-amino-7-bromoquinoline-5,8-dione], the “Resection in the reconstituted system” value in test [1] was “inhibited”. Besides, the “Effect on ATPase activity of DNA2” value on hDNA2 is on record as “do not affect; also recorded: no effect”.

The values are drawn from article PMC5520492, “Inhibition of DNA2 nuclease as a therapeutic strategy targeting replication stress in cancer cells” (Oncogenesis, 2017).
